Measured values from ChEMBL document CHEMBL1201862, “PubChem BioAssay data set” (2004).
The source made the active and inactive calls.

Experiments:
Prothrombin = Prothrombin (Bos taurus, UniProt P00735); test: thrombin inhibition, dose response, biochemical, fluorescence polarization, uHTS hits (AID 602369); type: functional
[1] = target: 26S proteasome non-ATPase regulatory subunit 14 (Homo sapiens, UniProt O00487); test: inhibition of proteasome subunit RPN11 – biochemical, fluorescence polarization, uHTS hits, confirmation (AID 602368); type: functional
Aminopeptidase N = target: T1, Aminopeptidase N (Plasmodium falciparum FcB1/Columbia, UniProt O96935); test: P. falciparum M1AAP inhibitors, biochemical, fluorogenic H-Leu-NHMec substrate, 1536-well (AID 1445); design: species or system Plasmodium falciparum 3D7, 3D7
T1 sequence (O96935 whole entry): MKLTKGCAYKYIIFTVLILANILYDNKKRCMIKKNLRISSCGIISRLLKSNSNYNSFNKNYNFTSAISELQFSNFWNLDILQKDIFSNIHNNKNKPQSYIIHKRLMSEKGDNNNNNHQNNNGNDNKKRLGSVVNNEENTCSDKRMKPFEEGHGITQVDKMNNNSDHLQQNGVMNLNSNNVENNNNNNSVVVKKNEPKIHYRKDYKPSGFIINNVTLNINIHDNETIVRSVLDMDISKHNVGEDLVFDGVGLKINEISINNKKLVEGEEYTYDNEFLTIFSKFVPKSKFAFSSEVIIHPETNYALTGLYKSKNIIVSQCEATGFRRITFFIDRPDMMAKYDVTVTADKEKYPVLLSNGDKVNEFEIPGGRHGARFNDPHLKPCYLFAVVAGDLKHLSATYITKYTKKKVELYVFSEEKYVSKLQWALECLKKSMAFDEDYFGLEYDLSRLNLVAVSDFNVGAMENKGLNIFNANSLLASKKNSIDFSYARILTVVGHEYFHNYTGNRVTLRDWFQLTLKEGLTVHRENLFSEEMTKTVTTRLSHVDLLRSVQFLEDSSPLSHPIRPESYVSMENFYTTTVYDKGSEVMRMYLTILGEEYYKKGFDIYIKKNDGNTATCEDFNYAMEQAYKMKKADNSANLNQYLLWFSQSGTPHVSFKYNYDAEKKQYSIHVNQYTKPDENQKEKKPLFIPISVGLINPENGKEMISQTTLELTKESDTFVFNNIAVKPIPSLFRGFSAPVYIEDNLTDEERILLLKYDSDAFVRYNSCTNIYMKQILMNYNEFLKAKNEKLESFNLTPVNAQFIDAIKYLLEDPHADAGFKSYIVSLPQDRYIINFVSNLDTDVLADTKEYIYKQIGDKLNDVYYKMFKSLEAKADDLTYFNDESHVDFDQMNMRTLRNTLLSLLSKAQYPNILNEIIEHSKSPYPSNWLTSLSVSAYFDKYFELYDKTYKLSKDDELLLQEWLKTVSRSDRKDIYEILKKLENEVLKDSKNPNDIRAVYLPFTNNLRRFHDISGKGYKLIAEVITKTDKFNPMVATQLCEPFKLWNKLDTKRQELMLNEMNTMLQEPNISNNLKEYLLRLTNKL

[2] = target: 72 kDa type IV collagenase (Homo sapiens, UniProt P08253); test: Dose Response validation of uHTS RPN11 inhibitor hits using a MMP-2 Fluorescence assay.; type: functional
Cytochrome P450 2D6 = Cytochrome P450 2D6 (Homo sapiens, UniProt P10635);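 note: CYP2D6 member of a cytochrome P450 panel assay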
[3] = target: Tyrosine-protein kinase receptor UFO (Homo sapiens, UniProt P30530); type: functional
[4] = target: Cell division cycle 7-related protein kinase (Homo sapiens, UniProt O00311); type: functional;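 note: value obtained from a kinome-wide kinase panel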
[5] = target: Dual specificity tyrosine-phosphorylation-regulated kinase 4 (Homo sapiens, UniProt Q9NR20); type: functional
[6] = target: Protein kinase C zeta type (Homo sapiens, UniProt Q05513); type: functional;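 note: measured as one member of a broad kinase profiling panel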
[7] = target: Dual specificity tyrosine-phosphorylation-regulated kinase 3 (Homo sapiens, UniProt O43781); type: functional;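 note: measured as one member of a broad kinase panel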
[8] = target: Lymphokine-activated killer T-cell-originated protein kinase (Homo sapiens, UniProt Q96KB5); type: functional;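 note: value comes from a kinase panel screen in which TOPK was one of the panel members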
[9] = target: Testis-specific serine/threonine-protein kinase 2 (Homo sapiens, UniProt Q96PF2); type: functional;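 note: part of the Navigating the Kinome panel, target entry STK22B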
[10] = target: Protein kinase C gamma type (Homo sapiens, UniProt P05129); type: functional
[11] = target: Eukaryotic elongation factor 2 kinase (Homo sapiens, UniProt O00418); type: functional
[12] = target: Cyclin-dependent kinase 1 (Homo sapiens, UniProt P06493); type: functional;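 note: Kinome-wide panel profiling, with the target listed as panel member CDC2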
[13] = target: MAP kinase-activated protein kinase 3 (Homo sapiens, UniProt Q16644); type: functional;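 note: value comes from a kinome-wide profiling panel in which MAPKAPK3 is one of the panel members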
[14] = target: Protein-tyrosine kinase 6 (Homo sapiens, UniProt Q13882); type: functional
[15] = target: Proto-oncogene tyrosine-protein kinase Src (Homo sapiens, UniProt P12931); type: functional;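 note: SRC entry within a kinome-wide kinase profiling panel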
[16] = target: Tyrosine-protein kinase Fyn (Homo sapiens, UniProt P06241); type: functional
[17] = target: G protein-coupled receptor kinase 5 (Homo sapiens, UniProt P34947); test: Navigating the Kinome. Panel member name: GPRK5; type: functional

Dual specificity tyrosine-phosphorylation-regulated kinase 3, sequence (O43781 whole entry): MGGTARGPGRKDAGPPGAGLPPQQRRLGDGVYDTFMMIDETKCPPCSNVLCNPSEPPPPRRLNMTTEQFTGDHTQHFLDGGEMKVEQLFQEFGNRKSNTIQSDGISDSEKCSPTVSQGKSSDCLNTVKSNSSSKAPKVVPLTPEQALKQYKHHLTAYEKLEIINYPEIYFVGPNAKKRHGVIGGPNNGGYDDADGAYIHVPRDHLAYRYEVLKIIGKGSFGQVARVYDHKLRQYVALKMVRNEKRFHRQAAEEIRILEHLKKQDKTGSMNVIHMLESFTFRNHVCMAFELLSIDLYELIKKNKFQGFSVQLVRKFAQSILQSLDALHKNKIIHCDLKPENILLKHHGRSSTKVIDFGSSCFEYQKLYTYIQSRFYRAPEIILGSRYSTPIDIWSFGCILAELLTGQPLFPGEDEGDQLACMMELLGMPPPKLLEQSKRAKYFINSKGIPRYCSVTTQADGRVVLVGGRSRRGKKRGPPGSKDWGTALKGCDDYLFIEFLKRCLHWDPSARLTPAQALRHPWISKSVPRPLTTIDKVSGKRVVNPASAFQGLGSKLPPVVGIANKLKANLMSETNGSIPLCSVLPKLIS
Protein-tyrosine kinase 6, sequence (Q13882 whole entry): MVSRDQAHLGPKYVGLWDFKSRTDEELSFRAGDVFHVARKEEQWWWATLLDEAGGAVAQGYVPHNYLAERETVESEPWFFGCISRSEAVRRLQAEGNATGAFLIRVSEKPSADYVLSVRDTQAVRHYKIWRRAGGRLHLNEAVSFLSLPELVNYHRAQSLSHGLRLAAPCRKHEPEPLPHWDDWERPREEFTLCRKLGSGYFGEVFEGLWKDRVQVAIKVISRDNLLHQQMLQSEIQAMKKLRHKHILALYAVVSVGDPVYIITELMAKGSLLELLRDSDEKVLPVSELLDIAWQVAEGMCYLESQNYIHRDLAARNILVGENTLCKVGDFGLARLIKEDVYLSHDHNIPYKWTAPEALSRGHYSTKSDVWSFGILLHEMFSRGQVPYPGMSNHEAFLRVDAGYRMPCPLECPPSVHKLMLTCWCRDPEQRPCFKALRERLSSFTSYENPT
Cyclin-dependent kinase 1, sequence (P06493 whole entry): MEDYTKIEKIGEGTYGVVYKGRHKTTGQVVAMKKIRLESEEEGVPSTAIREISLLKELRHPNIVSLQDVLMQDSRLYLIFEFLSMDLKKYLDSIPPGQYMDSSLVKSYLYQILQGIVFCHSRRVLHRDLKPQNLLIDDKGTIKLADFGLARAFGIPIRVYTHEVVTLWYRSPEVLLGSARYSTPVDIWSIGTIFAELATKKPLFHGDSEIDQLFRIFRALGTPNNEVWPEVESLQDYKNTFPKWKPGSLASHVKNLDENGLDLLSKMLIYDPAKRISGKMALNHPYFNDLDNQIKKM
Cell division cycle 7-related protein kinase, sequence (O00311 whole entry): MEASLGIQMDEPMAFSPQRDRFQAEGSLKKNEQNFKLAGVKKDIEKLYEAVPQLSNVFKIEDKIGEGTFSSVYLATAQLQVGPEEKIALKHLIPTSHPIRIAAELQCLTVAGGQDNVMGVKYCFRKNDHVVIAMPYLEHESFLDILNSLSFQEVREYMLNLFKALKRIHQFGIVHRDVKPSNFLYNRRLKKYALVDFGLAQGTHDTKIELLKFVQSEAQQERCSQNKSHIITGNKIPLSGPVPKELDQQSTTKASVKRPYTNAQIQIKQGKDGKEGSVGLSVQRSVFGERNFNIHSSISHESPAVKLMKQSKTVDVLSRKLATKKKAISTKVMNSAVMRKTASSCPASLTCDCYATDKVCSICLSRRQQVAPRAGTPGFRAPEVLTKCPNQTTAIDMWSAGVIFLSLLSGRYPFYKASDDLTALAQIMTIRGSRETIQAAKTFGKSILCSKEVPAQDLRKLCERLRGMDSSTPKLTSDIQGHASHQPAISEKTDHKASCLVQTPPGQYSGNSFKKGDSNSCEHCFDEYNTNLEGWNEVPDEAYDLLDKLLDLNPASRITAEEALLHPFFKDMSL
Lymphokine-activated killer T-cell-originated protein kinase, sequence (Q96KB5 whole entry): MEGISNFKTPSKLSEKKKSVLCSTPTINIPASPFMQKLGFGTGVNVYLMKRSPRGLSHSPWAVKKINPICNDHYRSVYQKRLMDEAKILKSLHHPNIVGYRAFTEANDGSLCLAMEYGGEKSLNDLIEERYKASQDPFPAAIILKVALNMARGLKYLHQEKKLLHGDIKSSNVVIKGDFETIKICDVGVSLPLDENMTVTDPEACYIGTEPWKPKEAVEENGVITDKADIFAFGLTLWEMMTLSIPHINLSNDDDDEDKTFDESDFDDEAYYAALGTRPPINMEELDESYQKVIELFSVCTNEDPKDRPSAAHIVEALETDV
72 kDa type IV collagenase, sequence (P08253 whole entry): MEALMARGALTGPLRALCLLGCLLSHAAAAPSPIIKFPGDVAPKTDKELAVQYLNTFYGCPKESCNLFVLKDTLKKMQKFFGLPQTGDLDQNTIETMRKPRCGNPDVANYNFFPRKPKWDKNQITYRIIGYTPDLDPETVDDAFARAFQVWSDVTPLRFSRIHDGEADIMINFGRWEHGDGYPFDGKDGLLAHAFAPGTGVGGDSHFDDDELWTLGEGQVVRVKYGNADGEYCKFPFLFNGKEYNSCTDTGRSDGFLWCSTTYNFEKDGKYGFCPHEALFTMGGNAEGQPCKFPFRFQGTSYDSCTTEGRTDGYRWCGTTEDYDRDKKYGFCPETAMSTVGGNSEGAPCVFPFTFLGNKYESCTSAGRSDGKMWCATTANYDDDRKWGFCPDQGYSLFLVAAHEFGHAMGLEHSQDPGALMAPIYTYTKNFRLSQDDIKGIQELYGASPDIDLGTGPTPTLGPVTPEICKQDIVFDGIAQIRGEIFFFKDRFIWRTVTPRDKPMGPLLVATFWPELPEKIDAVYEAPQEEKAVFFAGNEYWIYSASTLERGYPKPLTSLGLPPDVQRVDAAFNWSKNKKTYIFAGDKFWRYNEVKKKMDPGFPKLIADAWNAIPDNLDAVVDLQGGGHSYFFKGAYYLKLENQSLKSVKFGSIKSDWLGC
MAP kinase-activated protein kinase 3, sequence (Q16644 whole entry): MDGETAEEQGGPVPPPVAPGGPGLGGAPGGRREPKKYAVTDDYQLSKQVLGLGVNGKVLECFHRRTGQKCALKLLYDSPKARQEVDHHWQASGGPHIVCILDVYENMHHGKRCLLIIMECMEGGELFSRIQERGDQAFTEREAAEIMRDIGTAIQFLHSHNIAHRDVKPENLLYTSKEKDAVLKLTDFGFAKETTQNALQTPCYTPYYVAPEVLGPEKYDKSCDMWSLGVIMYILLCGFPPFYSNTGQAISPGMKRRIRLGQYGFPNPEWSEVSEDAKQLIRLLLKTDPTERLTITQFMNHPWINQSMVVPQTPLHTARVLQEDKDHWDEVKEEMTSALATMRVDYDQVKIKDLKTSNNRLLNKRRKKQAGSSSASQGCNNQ
Testis-specific serine/threonine-protein kinase 2, sequence (Q96PF2 whole entry): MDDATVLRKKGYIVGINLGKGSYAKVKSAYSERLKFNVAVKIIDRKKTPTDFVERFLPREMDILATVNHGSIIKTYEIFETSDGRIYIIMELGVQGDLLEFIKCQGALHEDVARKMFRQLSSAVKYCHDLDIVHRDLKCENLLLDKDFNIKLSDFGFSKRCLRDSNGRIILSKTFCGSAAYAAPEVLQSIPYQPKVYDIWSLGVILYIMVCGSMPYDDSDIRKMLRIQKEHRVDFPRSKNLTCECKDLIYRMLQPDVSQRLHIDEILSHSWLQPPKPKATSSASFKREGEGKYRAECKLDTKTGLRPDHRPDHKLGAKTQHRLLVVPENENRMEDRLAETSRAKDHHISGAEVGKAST
Tyrosine-protein kinase Fyn, sequence (P06241 whole entry): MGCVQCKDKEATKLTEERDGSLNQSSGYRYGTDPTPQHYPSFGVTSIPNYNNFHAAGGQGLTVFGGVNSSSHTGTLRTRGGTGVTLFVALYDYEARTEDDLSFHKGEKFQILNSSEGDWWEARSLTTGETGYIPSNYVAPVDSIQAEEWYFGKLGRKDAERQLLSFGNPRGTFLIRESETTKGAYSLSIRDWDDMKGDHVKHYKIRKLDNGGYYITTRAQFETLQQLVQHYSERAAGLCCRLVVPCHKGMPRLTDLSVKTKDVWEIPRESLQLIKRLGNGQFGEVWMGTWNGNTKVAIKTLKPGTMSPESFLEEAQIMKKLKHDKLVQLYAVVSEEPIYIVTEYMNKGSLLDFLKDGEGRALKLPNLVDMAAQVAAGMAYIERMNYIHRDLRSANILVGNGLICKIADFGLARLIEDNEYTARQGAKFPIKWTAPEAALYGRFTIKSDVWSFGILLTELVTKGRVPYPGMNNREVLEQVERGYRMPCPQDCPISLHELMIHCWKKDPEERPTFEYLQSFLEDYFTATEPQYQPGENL

IC50 (Prothrombin)	IC50 [1]	IC50 (Aminopeptidase N)	IC50 [2]	AC50 (Cytochrome P450 2D6)	SMILES	Ki [3]	Ki [4]	Ki [5]	Ki [6]	Ki [7]	Ki [8]	Ki [9]	Ki [10]	Ki [11]	Ki [12]	Ki [13]	Ki [14]	Ki [15]	Ki [16]	Ki [17]
47.8 µM (active)	37.2 µM (active)	24.1 µM (active)	> 100 µM (inactive)	inconclusive	N#Cc1c(O)nc(SCC(=O)c2cccs2)nc1-c1cccs1															
					COc1cc2c(Oc3ccc4[nH]c(C)cc4c3F)ncnc2cc1OCCCN1CCCC1 [CEDIRANIB]	0.316 µM (active)	> 1.26 µM (inactive)	> 7.94 µM (inactive)	> 7.94 µM (inactive)	> 6.31 µM (inactive)	> 10 µM (inactive)	> 1.58 µM (inactive)	> 7.94 µM (inactive)	> 3.98 µM (inactive)	> 7.94 µM (inactive)	> 10 µM (inactive)	0.0398 µM (active)	0.0501 µM (active)	0.501 µM (active)	> 3.98 µM (inactive)
